Laboratory results as given in article PMC9913752, “Proof-of-Concept Study of an Alpha-Fetoprotein-Derived Peptide for the Management of Canine Mammary Cancer” (Animals : an Open Access Journal from MDPI, 2023).
Where a SMILES comes first, the peptide text is derived from it. [ ]: non-standard residue; d: D form. Hyp = O=C(O)[C@@H]1C[C@@H](O)CN1

Assay: 8-day repeat-dose study, tolerability (blood chemistry, hematology, adverse events) in tumor-bearing dogs
Format: in vivo, dog
Conditions: for ALP / ALT / AST / Albumin / BUN / Bicarbonate / Bilirubin Conj. / Calcium / Chloride / Cholesterol / Creatine Kinase / GGT / Globulin / Glucose / HCT / HGB / MCH / MCV / Phosphorous / Platelets / Potassium / RBC / Sodium / Total Bilirubin / Total Protein / WBC: Post: 30 min after last injection on day 8, 10 mg s.c. once daily for 8 days
Excerpt: Previous studies utilizing repeat dosing in mice and rats established safe starting doses for studies using dogs. Female dogs with one or more spontaneously occurring mammary gland tumors greater than approximately 2 cm in maximum diameter, presenting to the Cancer Institute at the Schwarzman Animal Medical Center in New York City, were screened for inclusion in the study. […] All dogs underwent complete clinical staging, consisting of a complete blood count with cell differential, clinical chemistry, and urinalysis. Dogs were administered AFPep 10 mg s.c. once daily for 8 consecutive days. Tumors were biopsied prior to the administration of AFPep and were surgically removed on day 8 after the last injection of AFPep. Blood levels of AFPep were measured before and 30 minutes following its administration on the first day and eighth day of treatment with AFPep. Histopathology was obtained on all mammary gland tumors. Tolerability was assessed using the Veterinary Cooperative Oncology Group Common Terminology Criteria for Adverse Events. Blood chemistry and hematology analyses were performed at IDEXX Laboratories Inc. (Westbrook, ME, USA), using the Sysmex XT and Beckman AU 5800 systems. This study was approved by the Schwarzman Animal Medical Center IACUC and informed consent was obtained in writing from all owners.

In the case of CC(C)[C@@H]1NC(=O)[C@@H]2C[C@@H](O)CN2C(=O)[C@H]([C@@H](C)O)NC(=O)[C@H](CCCCN)NC(=O)[C@H](CCC(=O)O)NC(=O)[C@H](CC(N)=O)NC(=O)CNC(=O)[C@@H]2C[C@@H](O)CN2C(=O)[C@H](CC(N)=O)NC1=O [AFPep] (cyclo(EKT[Hyp]VN[Hyp]GN)), the “AFPep-related adverse events (VCOG-CTCAE)” value (10 mg s.c. once a day for 8 days, 6 dogs with mammary cancer) is reported as “grade-1 injection site reactions in three out of six dogs”, the “complete blood counts with cell differential, clinical chemistry, and urinalysis” value (30 minutes before first exposure vs 30 minutes after the 8-day administration, 10 mg s.c. once daily, 6 dogs) is reported as “unchanged” and the ALP (Dog 1) is reported as 261 U/L. For the same compound, the ALT (Dog 1) was 35 U/L, the AST (Dog 1) was 14 U/L and the Albumin (Dog 1) was 3 g/dL. The BUN (Dog 1) was 27 mg/dL, the Bicarbonate (Dog 1) was 21 mmol/L and the Bilirubin Conj. (Dog 1) was 0.1 mg/dL. For the same compound, the Calcium (Dog 1) was 10 mg/dL, the Chloride (Dog 1) was 111 mmol/L and the Cholesterol (Dog 1) was 277 mg/dL. The Creatine Kinase (Dog 1) was 120 U/L, the GGT (Dog 1) was 4 U/L and the Globulin (Dog 1) was 3 g/dL. For the same compound, the Glucose (Dog 1) was 107 mg/dL, the HCT (Dog 1) was 39% and the HGB (Dog 1) was 13 g/dL. The MCH (Dog 1) was 24 pg, the MCV (Dog 1) was 68 fL and the Phosphorous (Dog 1) was 4 mg/dL. For the same compound, the Platelets (Dog 1) was 438 10^3/µL, the Potassium (Dog 1) was 4 mmol/L and the RBC (Dog 1) was 6 10^6/µL. The Sodium (Dog 1) was 145 mmol/L, the Total Bilirubin (Dog 1) was 0.1 mg/dL and the Total Protein (Dog 1) was 6 g/dL. The WBC (Dog 1) was 18 10^3/µL, the ALP (Dog 2) was 115 U/L and the ALT (Dog 2) was 14 U/L. For the same compound, the AST (Dog 2) was 20 U/L, the Albumin (Dog 2) was 4 g/dL and the BUN (Dog 2) was 14 mg/dL. For the same compound, the Bicarbonate (Dog 2) was 23 mmol/L, the Bilirubin Conj. (Dog 2) was 0.1 mg/dL and the Calcium (Dog 2) was 11 mg/dL. For the same compound, the Chloride (Dog 2) was 108 mmol/L, the Creatine Kinase (Dog 2) was 225 U/L and the GGT (Dog 2) was 6 U/L. For the same compound, the Globulin (Dog 2) was 4 g/dL, the Glucose (Dog 2) was 178 mg/dL and the HCT (Dog 2) was 46%. For the same compound, the HGB (Dog 2) was 17 g/dL, the MCH (Dog 2) was 23 pg and the MCV (Dog 2) was 65 fL. The Phosphorous (Dog 2) was 3 mg/dL, the Platelets (Dog 2) was 700 10^3/µL and the Potassium (Dog 2) was 5 mmol/L. The RBC (Dog 2) was 7 10^6/µL, the Sodium (Dog 2) was 146 mmol/L and the Total Bilirubin (Dog 2) was 0.1 mg/dL. The Total Protein (Dog 2) was 8 g/dL, the WBC (Dog 2) was 7 10^3/µL and the ALP (Dog 3) was 178 U/L. The ALT (Dog 3) was 39 U/L, the AST (Dog 3) was 15 U/L and the Albumin (Dog 3) was 4 g/dL. It also gave a BUN (Dog 3) of 14 mg/dL, a Bicarbonate (Dog 3) of 23 mmol/L and a Bilirubin Conj. (Dog 3) of 0.1 mg/dL. It also gave a Calcium (Dog 3) of 9 mg/dL, a Chloride (Dog 3) of 108 mmol/L and a Cholesterol (Dog 3) of 273 mg/dL. It also gave a Creatine Kinase (Dog 3) of 115 U/L, a GGT (Dog 3) of 4 U/L and a Globulin (Dog 3) of 3 g/dL. The Glucose (Dog 3) was 107 mg/dL, the HCT (Dog 3) was 46% and the HGB (Dog 3) was 17 g/dL. The MCH (Dog 3) was 23 pg, the MCV (Dog 3) was 64 fL and the Phosphorous (Dog 3) was 4 mg/dL. For the same compound, the Platelets (Dog 3) was 558 10^3/µL, the Potassium (Dog 3) was 5 mmol/L and the RBC (Dog 3) was 7 10^6/µL. The Sodium (Dog 3) was 145 mmol/L, the Total Bilirubin (Dog 3) was 0.1 mg/dL and the Total Protein (Dog 3) was 7 g/dL. For the same compound, the WBC (Dog 3) was 6 10^3/µL, the ALP (Dog 4) was 148 U/L and the ALT (Dog 4) was 60 U/L. It also gave an AST (Dog 4) of 23 U/L, an Albumin (Dog 4) of 3 g/dL and a BUN (Dog 4) of 24 mg/dL. The Bicarbonate (Dog 4) was 17 mmol/L, the Bilirubin Conj. (Dog 4) was 0.1 mg/dL and the Calcium (Dog 4) was 10 mg/dL. For the same compound, the Chloride (Dog 4) was 114 mmol/L, the Cholesterol (Dog 4) was 451 mg/dL and the Creatine Kinase (Dog 4) was 169 U/L. For the same compound, the GGT (Dog 4) was 6 U/L, the Globulin (Dog 4) was 4 g/dL and the Glucose (Dog 4) was 92 mg/dL. The HCT (Dog 4) was 51%, the HGB (Dog 4) was 18 g/dL and the MCH (Dog 4) was 23 pg. For the same compound, the MCV (Dog 4) was 62 fL, the Phosphorous (Dog 4) was 3 mg/dL and the Platelets (Dog 4) was 485 10^3/µL. For the same compound, the Potassium (Dog 4) was 4.4 mmol/L, the RBC (Dog 4) was 8 10^6/µL and the Sodium (Dog 4) was 147 mmol/L. For the same compound, the Total Bilirubin (Dog 4) was 0.1 mg/dL, the Total Protein (Dog 4) was 6 g/dL and the WBC (Dog 4) was 13 10^3/µL. For the same compound, the ALP (Dog 5) was 15 U/L, the ALT (Dog 5) was 29 U/L and the AST (Dog 5) was 26 U/L. It also gave an Albumin (Dog 5) of 4 g/dL, a BUN (Dog 5) of 15 mg/dL and a Bicarbonate (Dog 5) of 21 mmol/L. For the same compound, the Bilirubin Conj. (Dog 5) was 0.1 mg/dL, the Calcium (Dog 5) was 10 mg/dL and the Chloride (Dog 5) was 110 mmol/L. It also gave a Cholesterol (Dog 5) of 373 mg/dL, a Creatine Kinase (Dog 5) of 138 U/L and a GGT (Dog 5) of 18 U/L. The Globulin (Dog 5) was 3 g/dL, the Glucose (Dog 5) was 88 mg/dL and the HCT (Dog 5) was 48%. For the same compound, the HGB (Dog 5) was 18 g/dL, the MCH (Dog 5) was 25 pg and the MCV (Dog 5) was 67 fL. For the same compound, the Phosphorous (Dog 5) was 3 mg/dL, the Platelets (Dog 5) was 462 10^3/µL and the Potassium (Dog 5) was 5 mmol/L. For the same compound, the RBC (Dog 5) was 7 10^6/µL, the Sodium (Dog 5) was 143 mmol/L and the Total Bilirubin (Dog 5) was 0.1 mg/dL. The Total Protein (Dog 5) was 7 g/dL, the WBC (Dog 5) was 7 10^3/µL and the ALP (Dog 6) was 19 U/L. The ALT (Dog 6) was 41 U/L, the AST (Dog 6) was 18 U/L and the Albumin (Dog 6) was 3 g/dL. The BUN (Dog 6) was 30 mg/dL, the Bicarbonate (Dog 6) was 21 mmol/L and the Bilirubin Conj. (Dog 6) was 0.1 mg/dL. The Calcium (Dog 6) was 10 mg/dL, the Chloride (Dog 6) was 114 mmol/L and the Cholesterol (Dog 6) was 198 mg/dL. For the same compound, the Creatine Kinase (Dog 6) was 80 U/L, the GGT (Dog 6) was 5 U/L and the Globulin (Dog 6) was 3 g/dL. It also gave a Glucose (Dog 6) of 81 mg/dL, an HCT (Dog 6) of 43% and an HGB (Dog 6) of 15 g/dL. The MCH (Dog 6) was 25 pg, the MCV (Dog 6) was 74 fL and the Phosphorous (Dog 6) was 6 mg/dL. The Platelets (Dog 6) was 519 10^3/µL, the Potassium (Dog 6) was 4 mmol/L and the RBC (Dog 6) was 6 10^6/µL. It also gave a Sodium (Dog 6) of 143 mmol/L, a Total Bilirubin (Dog 6) of 0.1 mg/dL and a Total Protein (Dog 6) of 6 g/dL. The WBC (Dog 6) was 13 10^3/µL.
